Measured values published in patent US10654816B2, “Compounds and compositions for treating conditions associated with NLRP activity” (NOVARTIS INFLAMMASOME RESEARCH, INC., priority 2017, dated 2020).

Tested on: IL-1β production in PMA-differentiated THP-1 cells
Test: IL-1β production in PMA-differentiated THP-1 cells stimulated with gramicidin (hTHP-1 assay, HTRF readout; Procedures 1-3)
Type: cell-based, human
Settings: Homo sapiens, THP-1, hTHP-1 assay containing 2% fetal bovine serum; average; class symbols; read-out: hTHP-1 IC50 (Average IC50 of compounds in hTHP-1 assay)
Summary of the method: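 PMA-differentiated (20 ng/ml, 16-18 h) THP-1 cells in RPMI with 2% FBS, 50,000 cells/well, preincubated 1 h with compound (final 0.0017-100 μM, 0.37% DMSO), then stimulated with 5 μM gramicidin for 2 h. IL-1β in cell-free supernatant measured by HTRF (620/668 nm).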

| SMILES | IC50 [µM] |
| --- | --- |
| CC(C)c1nn(-c2ccccc2)c(C(C)C)c1NC(=O)N=S(N)(=O)c1cc(C(C)(C)O)cs1 (stereo not shown) [Example 284, N′-((3,5-diisopropyl-1-phenyl-1H-pyrazol-4-yl)carbamoyl)-4-(2-hydroxypropan-2-yl)thiophene-2-sulfonimidamide] | 5 to 30 |
| CNCc1ccc(S(N)(=O)=NC(=O)Nc2c3c(cc4c2CCC4)CCC3)c(F)c1 (stereo not shown) [Example 287, 2-fluoro-N′-((1,2,3,5,6,7-hexahydro-s-indacen-4-yl)carbamoyl)-4-((methylamino)methyl)benzene-sulfonimidamide] | 1 to 5 |
| CC(C)c1ccc(S(N)(=O)=NC(=O)Nc2c3c(cc4c2CCC4)CCC3)cn1 (stereo not shown) [Example 288, N′-((1,2,3,5,6,7-hexahydro-s-indacen-4-yl)carbamoyl)-6-isopropylpyridine-3-sulfonimidamide] | 1 to 5 |
| CCc1ccc2cn[nH]c2c1NC(=O)N=S(N)(=O)c1cnc(C(C)(C)O)s1 (stereo not shown) [Example 290, N′-((6-ethyl-1H-indazol-7-yl)carbamoyl)-2-(2-hydroxypropan-2-yl)thiazole-5-sulfonimidamide] | 1 to 5 |
| Cc1ccc(-c2ccc(NC(=O)N=S(N)(=O)c3ncc(C(C)(C)O)s3)c3c2CCC3)cc1C (stereo not shown) [Example 426, 1-{Amino[5-(2-hydroxypropan-2-yl)-1,3-thiazol-2-yl]oxo-λ^6-sulfanylidene}-3-[7-(3,4-dimethylphenyl)-2,3-dihydro-1H-inden-4-yl]urea] | 5 to 30 |
| Cc1ccc(-c2c3c(c(NC(=O)N=S(N)(=O)c4ncc(C(C)(C)O)s4)c4c2CCC4)CCC3)cc1C (stereo not shown) [Example 427, 1-{Amino[5-(2-hydroxypropan-2-yl)-1,3-thiazol-2-yl]oxo-λ^6-sulfanylidene}-3-[8-(3,4-dimethylphenyl)-1,2,3,5,6,7-hexahydro-s-indacen-4-yl]urea] | 5 to 30 |
| Cc1nc(C)c(S(N)(=O)=NC(=O)Nc2c(C(C)C)cc(F)cc2C(C)C)s1 (stereo not shown) [Example 428, 3-[amino(dimethyl-1,3-thiazol-5-yl)oxo-λ^6-sulfanylidene]-1-[4-fluoro-2,6-bis(propan-2-yl)phenyl]urea] | 5 to 30 |
| CC(C)c1cc(F)cc(C(C)C)c1NC(=O)N=S(N)(=O)c1cnc2c(cnn2C)c1 (stereo not shown) [Example 430, 3-[amino({1-methyl-1H-pyrazolo[3,4-b]pyridin-5-yl})oxo-λ^6-sulfanylidene]-1-[4-fluoro-2,6-bis(propan-2-yl)phenyl]urea] | 5 to 30 |
| CC(C)c1cc(F)cc(C(C)C)c1NC(=O)N=S(N)(=O)c1cccc2c(N(C)C)cccc12 (stereo not shown) [Example 431, 1-{amino[5-(dimethylamino)naphthalen-1-yl]oxo-λ^6-sulfanylidene}-3-[4-fluoro-2,6-bis(propan-2-yl)phenyl]urea] | 5 to 30 |

Same assay, conditions: Homo sapiens, THP-1, hTHP-1 assay containing 2% fetal bovine serum; average; given as bound; read-out: hTHP-1 IC50 (Average IC50 of compounds in hTHP-1 assay)

| SMILES | IC50 [µM] |
| --- | --- |
| Cc1cc(NC(=O)N=S(N)(=O)c2ccc(C(C)(C)O)s2)cc(C)n1 (stereo not shown) [compound 78, N-((2,6-dimethylpyridin-4-yl)carbamoyl)-5-(2-hydroxypropan-2-yl)thiophene-2-sulfonimidamide] | > 30 |
